Results published in patent US8063048B2, “Acetylenyl-pyrazolo-pyrimidine derivatives” (Hoffmann-La Roche Inc., priority 2005, dated 2011).

melting point [°C] | Compound
196 | NCCNS(=O)(=O)c1ccc(C#Cc2cnn3c(C(F)(F)F)cc(-c4cccc(C(F)(F)F)c4)nc23)s1 [Example 262, 5-[7-Trifluoromethyl-5-(3-trifluoromethyl-phenyl)-pyrazolo[1,5-a]pyrimidin-3-ylethynyl]-thiophene-2-sulfonic acid (2-amino-ethyl)-amide]
161 | NCCNS(=O)(=O)c1ccc(C#Cc2cnn3c(C(F)(F)F)cc(-c4ccc(C(F)(F)F)cc4)nc23)s1 [Example 263, 5-[7-Trifluoromethyl-5-(4-trifluoromethyl-phenyl)-pyrazolo[1,5-a]pyrimidin-3-ylethynyl]-thiophene-2-sulfonic acid (2-amino-ethyl)-amide]
174 | O=S(=O)(c1ccc(C#Cc2cnn3c(C(F)F)cc(-c4cccc(C(F)(F)F)c4)nc23)s1)N(CCO)CCO [Example 264, 5-[7-Difluoromethyl-5-(3-trifluoromethyl-phenyl)-pyrazolo[1,5-a]pyrimidin-3-ylethynyl]-thiophene-2-sulfonic acid bis-(2-hydroxy-ethyl)-amide]
153 | O=S(=O)(NC(CO)CO)c1ccc(C#Cc2cnn3c(C(F)F)cc(-c4cccc(C(F)(F)F)c4)nc23)s1 [Example 265, 5-[7-Difluoromethyl-5-(3-trifluoromethyl-phenyl)-pyrazolo[1,5-a]pyrimidin-3-ylethynyl]-thiophene-2-sulfonic acid (2-hydroxy-1-hydroxymethyl-ethyl)-amide]
129 | O=S(=O)(c1ccc(C#Cc2cnn3c(C(F)(F)F)cc(-c4cccc(C(F)(F)F)c4)nc23)s1)N(CCO)CCO [Example 266, 5-[7-Trifluoromethyl-5-(3-trifluoromethyl-phenyl)-pyrazolo[1,5-a]pyrimidin-3-ylethynyl]-thiophene-2-sulfonic acid bis-(2-hydroxy-ethyl)-amide]
178 | CN(C)CCNS(=O)(=O)c1ccc(C#Cc2ncn3c(C(F)(F)F)cc(-c4ccc(C(F)(F)F)cc4)nc23)s1 [Example 267, 5-[4-Trifluoromethyl-2-(4-trifluoromethyl-phenyl)-imidazo[1,5-a]pyrimidin-8-ylethynyl]-thiophene-2-sulfonic acid (2-dimethylamino-ethyl)-amide]
199 | FC(F)(F)c1ccc(-c2cc(C(F)(F)F)n3cnc(C#Cc4cccnc4)c3n2)cc1 [Example 268, 8-Pyridin-3-ylethynyl-4-trifluoromethyl-2-(4-trifluoromethyl-phenyl)-imidazo[1,5-a]pyrimidine]
122 | O=S(=O)(c1ccc(C#Cc2cnn3c(C(F)F)cc(-c4ccc(C(F)(F)F)cc4)nc23)s1)N(CCO)CCO [Example 269, 5-[7-Difluoromethyl-5-(4-trifluoromethyl-phenyl)-pyrazolo[1,5-a]pyrimidin-3-ylethynyl]-thiophene-2-sulfonic acid bis-(2-hydroxy-ethyl)-amide]
152 | O=S(=O)(NC(CO)CO)c1ccc(C#Cc2cnn3c(C(F)F)cc(-c4ccc(C(F)(F)F)cc4)nc23)s1 [Example 270, 5-[7-Difluoromethyl-5-(4-trifluoromethyl-phenyl)-pyrazolo[1,5-a]pyrimidin-3-ylethynyl]-thiophene-2-sulfonic acid (2-hydroxy-1-hydroxymethyl-ethyl)-amide]
210 | O=S(=O)(NC(CO)CO)c1ccc(C#Cc2cnn3c(C(F)(F)F)cc(-c4cccc(C(F)(F)F)c4)nc23)s1 [Example 271, 5-[7-Trifluoromethyl-5-(3-trifluoromethyl-phenyl)-pyrazolo[1,5-a]pyrimidin-3-ylethynyl]-thiophene-2-sulfonic acid (2-hydroxy-1-hydroxymethyl-ethyl)-amide]
170 | O=S(=O)(NCc1ccncc1)c1ccc(C#Cc2cnn3c(C(F)(F)F)cc(-c4ccc(C(F)(F)F)cc4)nc23)s1 [Example 272, 5-[7-Trifluoromethyl-5-(4-trifluoromethyl-phenyl)-pyrazolo[1,5-a]pyrimidin-3-ylethynyl]-thiophene-2-sulfonic acid (pyridin-4-ylmethyl)-amide]
177 | O=S(=O)(NCc1cccnc1)c1ccc(C#Cc2cnn3c(C(F)(F)F)cc(-c4ccc(C(F)(F)F)cc4)nc23)s1 [Example 273, 5-[7-Trifluoromethyl-5-(4-trifluoromethyl-phenyl)-pyrazolo[1,5-a]pyrimidin-3-ylethynyl]-thiophene-2-sulfonic acid (pyridin-3-ylmethyl)-amide]
149 | NS(=O)(=O)c1cc(C#Cc2ncn3c(C(F)F)cc(-c4ccc(C(F)(F)F)cc4)nc23)c(F)cc1F [Example 274, 5-[4-Difluoromethyl-2-(4-trifluoromethyl-phenyl)-imidazo[1,5-a]pyrimidin-8-ylethynyl]-2,4-difluoro-benzenesulfonamide]
223 | NS(=O)(=O)c1ccc(C#Cc2ncn3c(C(F)F)cc(-c4ccc(C(F)(F)F)cc4)nc23)s1 [Example 275, 5-[4-Difluoromethyl-2-(4-trifluoromethyl-phenyl)-imidazo[1,5-a]pyrimidin-8-ylethynyl]-thiophene-2-sulfonic acid amide]
282 | NS(=O)(=O)c1ccc(C#Cc2ncn3c(C(F)F)cc(-c4ccc(C(F)(F)F)cc4)nc23)cc1 [Example 276, 4-[4-Difluoromethyl-2-(4-trifluoromethyl-phenyl)-imidazo[1,5-a]pyrimidin-8-ylethynyl]-benzenesulfonamide]
141 | O=S(=O)(NCc1ccncc1)c1ccc(C#Cc2cnn3c(C(F)F)cc(-c4ccc(C(F)(F)F)cc4)nc23)s1 [Example 277, 5-[7-Difluoromethyl-5-(4-trifluoromethyl-phenyl)-pyrazolo[1,5-a]pyrimidin-3-ylethynyl]-thiophene-2-sulfonic acid (pyridin-4-ylmethyl)-amide]
152 | O=S(=O)(NCc1cccnc1)c1ccc(C#Cc2cnn3c(C(F)F)cc(-c4ccc(C(F)(F)F)cc4)nc23)s1 [Example 278, 5-[7-Difluoromethyl-5-(4-trifluoromethyl-phenyl)-pyrazolo[1,5-a]pyrimidin-3-ylethynyl]-thiophene-2-sulfonic acid (pyridin-3-ylmethyl)-amide]
248 | O=S(=O)(Nc1cccnc1)c1ccc(C#Cc2cnn3c(C(F)(F)F)cc(-c4ccc(C(F)(F)F)cc4)nc23)s1 [Example 279, 5-[7-Trifluoromethyl-5-(4-trifluoromethyl-phenyl)-pyrazolo[1,5-a]pyrimidin-3-ylethynyl]-thiophene-2-sulfonic acid pyridin-3-ylamide]
209 | O=S(=O)(Nc1ccncc1)c1ccc(C#Cc2cnn3c(C(F)(F)F)cc(-c4ccc(C(F)(F)F)cc4)nc23)s1 [Example 280, 5-[7-Trifluoromethyl-5-(4-trifluoromethyl-phenyl)-pyrazolo[1,5-a]pyrimidin-3-ylethynyl]-thiophene-2-sulfonic acid pyridin-4-ylamide]
226 | O=S(=O)(Nc1cccnc1)c1ccc(C#Cc2cnn3c(C(F)F)cc(-c4ccc(C(F)(F)F)cc4)nc23)s1 [Example 281, 5-[7-Difluoromethyl-5-(4-trifluoromethyl-phenyl)-pyrazolo[1,5-a]pyrimidin-3-ylethynyl]-thiophene-2-sulfonic acid pyridin-3-ylamide]
215 | O=S(=O)(Nc1ccncc1)c1ccc(C#Cc2cnn3c(C(F)F)cc(-c4ccc(C(F)(F)F)cc4)nc23)s1 [Example 282, 5-[7-Difluoromethyl-5-(4-trifluoromethyl-phenyl)-pyrazolo[1,5-a]pyrimidin-3-ylethynyl]-thiophene-2-sulfonic acid pyridin-4-ylamide]
200 | Cc1cc(CNS(=O)(=O)c2ccc(C#Cc3cnn4c(C(F)(F)F)cc(-c5ccc(C(F)(F)F)cc5)nc34)s2)cc(C)n1 [Example 283, 5-[7-Trifluoromethyl-5-(4-trifluoromethyl-phenyl)-pyrazolo[1,5-a]pyrimidin-3-ylethynyl]-thiophene-2-sulfonic acid (2,6-dimethyl-pyridin-4-ylmethyl)-amide]
225 | Nc1ccc(C#Cc2ncn3c(C(F)(F)F)cc(-c4ccc(C(F)(F)F)cc4)nc23)cn1 [Example 284, 5-[4-Trifluoromethyl-2-(4-trifluoromethyl-phenyl)-imidazo[1,5-a]pyrimidin-8-ylethynyl]-pyridin-2-ylamine]
294 | Nc1ncc(C#Cc2ncn3c(C(F)(F)F)cc(-c4ccc(C(F)(F)F)cc4)nc23)cn1 [Example 285, 5-[4-Trifluoromethyl-2-(4-trifluoromethyl-phenyl)-imidazo[1,5-a]pyrimidin-8-ylethynyl]-pyrimidin-2-ylamine]
200 | Nc1cnc(C#Cc2cnn3c(C(F)(F)F)cc(-c4ccc(C(F)(F)F)cc4)nc23)cn1 [Example 286, 5-[7-Trifluoromethyl-5-(4-trifluoromethyl-phenyl)-pyrazolo[1,5-a]pyrimidin-3-ylethynyl]-pyrazin-2-ylamine]
233 | Nc1cnc(C#Cc2cnn3c(C(F)F)cc(-c4ccc(C(F)(F)F)cc4)nc23)cn1 [Example 287, 5-[7-Difluoromethyl-5-(4-trifluoromethyl-phenyl)-pyrazolo[1,5-a]pyrimidin-3-ylethynyl]-pyrazin-2-ylamine]
212 | N#Cc1ccc(C#Cc2cnn3c(C(F)(F)F)cc(-c4ccc(C(F)(F)F)cc4)nc23)cn1 [Example 288, 5-[7-Trifluoromethyl-5-(4-trifluoromethyl-phenyl)-pyrazolo[1,5-a]pyrimidin-3-ylethynyl]-pyridine-2-carbonitrile]
201 | Cc1cc(-c2cc(C(F)(F)F)n3ncc(C#Cc4ccc(N)nc4)c3n2)ccc1C(F)(F)F [Example 289, 5-[5-(3-Methyl-4-trifluoromethyl-phenyl)-7-trifluoromethyl-pyrazolo[1,5-a]pyrimidin-3-ylethynyl]-pyridin-2-ylamine]
240 | Cc1cc(-c2cc(C(F)(F)F)n3ncc(C#Cc4cnc(N)nc4)c3n2)ccc1C(F)(F)F [Example 290, 5-[5-(3-Methyl-4-trifluoromethyl-phenyl)-7-trifluoromethyl-pyrazolo[1,5-a]pyrimidin-3-ylethynyl]-pyrimidin-2-ylamine]
